Measurements published in EPA's ToxRefDB 2.

How the values were obtained:
[1] = system: rat; settings: Multigenerational reproductive toxicity study, other, Oral, Feed, dose end: 2 generation
[2] = system: mouse; settings: Carcinogenicity, cd1, Oral, Feed, dose end: 18 month, group: systemic
[3] = system: rabbit; settings: Prenatal developmental toxicity study, new zealand white, Oral, Gavage/Intubation, dose end: 19 GD
[4] = system: mouse; settings: Subchronic oral toxicity in rodents, cd1, Feed, dose end: 13 week, group: systemic, systemic / pathology microscopic / liver / hypertrophy + systemic / pathology microscopic / liver / necrosis + systemic / pathology …
[5] = system: dog; settings: Subchronic oral toxicity in nonrodent, beagle, Feed, dose end: 13 week, group: systemic, systemic / pathology microscopic / stomach / [other]
[6] = system: rat; settings: Prenatal developmental toxicity study, sprague dawley, Oral, Gavage/Intubation, dose end: 15 GD
[7] = system: rat; settings: Prenatal developmental toxicity study, sprague dawley, Oral, Gavage/Intubation, dose end: 15 GD; remark: listed apart in the source
[8] = system: mouse; settings: Carcinogenicity, cd1, Oral, Feed, dose end: 24 month, group: systemic
[9] = system: dog; settings: Chronic toxicity, beagle, Oral, Feed, dose end: 52 week, group: systemic
[10] = system: mouse; settings: Subchronic oral toxicity in rodents, cd1, Feed, dose end: 13 week, group: systemic
[11] = system: rat; settings: Combined chronic toxicity/carcinogenicity, sprague dawley, Oral, Feed, dose end: 24 month, group: systemic
[12] = system: mouse; settings: Subchronic oral toxicity in rodents, cd1, Feed, dose end: 17 week, group: systemic, systemic / organ weight / liver / absolute + systemic / organ weight / liver / relative to body weight + systemic / organ weight / liver / …
[13] = system: rat; settings: Subchronic oral toxicity in rodents, other, Feed, dose end: 3 month, group: systemic
[14] = system: rabbit; settings: Prenatal developmental toxicity study, new zealand white, Oral, Gavage/Intubation, dose end: 29 GD
[15] = system: mouse; settings: Subchronic oral toxicity in rodents, b6c3f1, Gavage/Intubation, dose end: 14 week, group: systemic
[16] = system: rat; settings: Combined chronic toxicity/carcinogenicity, fischer, Oral, Gavage/Intubation, dose end: 104 week, group: systemic
[17] = system: rat; settings: Prenatal developmental toxicity study, sprague dawley, Oral, Gavage/Intubation, dose end: 19 GD
[18] = system: rat; settings: Subchronic oral toxicity in rodents, fischer, Gavage/Intubation, dose end: 14 week, group: systemic
[19] = system: mouse; settings: Combined chronic toxicity/carcinogenicity, b6c3f1, Oral, Gavage/Intubation, dose end: 104 week, group: systemic
[20] = system: mouse; settings: Multigenerational reproductive toxicity study, cd1, Oral, Water, dose end: 2 generation
[21] = group: offspring, systemic / in life observation / body weight / offspring (pup) weight + systemic / pathology microscopic / liver / hypertrophy
[22] = group: offspring, systemic / in life observation / body weight / offspring (pup) weight + systemic / pathology microscopic / liver / hypertrophy + …
[23] = group: parental, systemic / pathology microscopic / liver / hypertrophy
[24] = group: parental, systemic / pathology microscopic / liver / hypertrophy + systemic / in life observation / food consumption / food consumption + systemic / …
[25] = group: reproductive, reproductive / offspring survival early / litter size / litter size + reproductive / offspring survival early / birth index / live birth …
[26] = systemic / pathology microscopic / liver / hypertrophy + systemic / organ weight / liver / absolute + systemic / organ weight / liver / …
[27] = group: developmental, developmental / developmental malformation / bone / full supernumerary
[28] = group: maternal, systemic / in life observation / body weight / body weight gain + systemic / in life observation / food consumption / food consumption
[29] = group: maternal, systemic / in life observation / body weight / body weight gain + systemic / in life observation / food consumption / food consumption + …
[30] = group: developmental, developmental / developmental malformation / mouth / jaw / cleft palate + systemic / in life observation / body weight / fetal weight
[31] = group: maternal, systemic / in life observation / body weight / body weight gain + systemic / in life observation / clinical signs / ataxia + systemic / in …
[32] = group: developmental, developmental / developmental malformation / bone / short + developmental / developmental malformation / bone / unossified + developmental…
[33] = systemic / pathology microscopic / liver / lesion(s) (nos) + systemic / organ weight / liver / nos
[34] = systemic / pathology microscopic / mammary gland / hypertrophy
[35] = systemic / pathology microscopic / stomach / hyperemia
[36] = systemic / pathology microscopic / liver / hypertrophy + systemic / pathology microscopic / liver / necrosis + systemic / pathology …
[37] = systemic / in life observation / body weight / body weight gain + systemic / pathology microscopic / liver / hypertrophy + systemic / …
[38] = systemic / in life observation / body weight / body weight gain
[39] = group: developmental, systemic / in life observation / body weight / fetal weight
[40] = group: maternal, reproductive / reproductive performance / aborted / aborted + systemic / in life observation / body weight / body weight + systemic / in …
[41] = systemic / pathology microscopic / pancreas / hyperplasia + systemic / pathology microscopic / pancreas / inflammation + systemic / …
[42] = systemic / in life observation / body weight / body weight
[43] = systemic / in life observation / body weight / body weight + systemic / pathology microscopic / pancreas / atrophy
[44] = group: developmental, developmental / developmental malformation / bone / unossified + systemic / in life observation / body weight / fetal weight
[45] = group: maternal, systemic / in life observation / body weight / body weight + systemic / in life observation / body weight / body weight gain + systemic / …
[46] = systemic / in life observation / body weight / body weight + systemic / in life observation / body weight / body weight gain + systemic / …
[47] = systemic / pathology microscopic / pancreas / hyperplasia
[48] = group: offspring, systemic / in life observation / body weight / offspring (pup) weight + systemic / in life observation / food consumption / food consumption…
[49] = group: parental, systemic / in life observation / body weight / body weight + systemic / organ weight / ovary / relative to body weight + systemic / organ …
[50] = group: parental, systemic / in life observation / water consumption / water consumption
[51] = group: reproductive, reproductive / offspring survival early / litter size / litter size + reproductive / reproductive performance / estrous cycle / length + …

CCCC1COC(Cn2cncn2)(c2ccc(Cl)cc2Cl)O1 (stereo unspecified) [Propiconazole]
NEL [1, 21]: 48 mg/kg/day | NOAEL [1, 21]: 48 mg/kg/day | LEL [1, 22]: 238 mg/kg/day | LOAEL [1, 22]: 238 mg/kg/day | LEL [1, 23]: 42 mg/kg/day | LOAEL [1, 23]: 42 mg/kg/day | NEL [1, 24]: 8 mg/kg/day | NOAEL [1, 24]: 8 mg/kg/day | LEL [1, 25]: 238 mg/kg/day | LOAEL [1, 25]: > 238 mg/kg/day | NEL [1, 25]: 48 mg/kg/day | NOAEL [1, 25]: ≥ 238 mg/kg/day | LOAEL ([2]; systemic / pathology microscopic / liver / hypertrophy + systemic / in life observation / body weight / body weight gain): 59 mg/kg/day | LEL ([2]; systemic / pathology microscopic / liver / hypertrophy + systemic / in life observation / body weight / body weight gain + systemic / organ …): 59 mg/kg/day | NEL [2, 26]: 11 mg/kg/day | NOAEL [2, 26]: 11 mg/kg/day | LEL [3, 27]: 400 mg/kg/day | LOAEL [3, 27]: > 400 mg/kg/day | NEL [3, 27]: 250 mg/kg/day | NOAEL [3, 27]: ≥ 400 mg/kg/day | LEL [3, 28]: 250 mg/kg/day | LOAEL [3, 28]: 250 mg/kg/day | NEL [3, 29]: 100 mg/kg/day | NOAEL [3, 29]: 100 mg/kg/day | LEL [4]: 65 mg/kg/day | LOAEL [4]: 65 mg/kg/day | NEL [4]: 2.7 mg/kg/day | NOAEL [4]: 2.7 mg/kg/day | LEL [5]: 6.25 mg/kg/day | LOAEL [5]: 6.25 mg/kg/day | NEL [5]: 1.25 mg/kg/day | NOAEL [5]: 1.25 mg/kg/day | LEL [6, 30]: 300 mg/kg/day | LOAEL [6, 30]: > 300 mg/kg/day | NEL [6, 30]: < 300 mg/kg/day | NOAEL [6, 30]: ≥ 300 mg/kg/day | LEL [6, 31]: 300 mg/kg/day | LOAEL [6, 31]: 300 mg/kg/day | NEL [6, 31]: < 300 mg/kg/day | NOAEL [6, 31]: < 300 mg/kg/day | LEL [7, 32]: 90 mg/kg/day | LOAEL [7, 32]: 90 mg/kg/day | NEL [7, 32]: 30 mg/kg/day | NOAEL [7, 32]: 30 mg/kg/day | LEL [7, 28]: 90 mg/kg/day | NEL [7, 29]: 30 mg/kg/day | NOAEL [7, 29]: 90 mg/kg/day | LOAEL ([7]; group: maternal, systemic / in life observation / clinical signs / ataxia + systemic / in life observation / clinical signs / lethargy + systemic / in life …): 300 mg/kg/day | NEL ([8]; systemic / organ weight / liver / nos + systemic / clinical chemistry / alanine aminotransferase (alt/sgpt) / alanine aminotransferase (alt/…): 10 mg/kg/day | LEL [8, 33]: 49.4 mg/kg/day | LOAEL [8, 33]: 49.4 mg/kg/day | NOAEL ([8]; systemic / pathology microscopic / liver / lesion(s) (nos) + systemic / organ weight / liver / nos + systemic / pathology microscopic / …): 10 mg/kg/day | LEL [9, 34]: 1.9 mg/kg/day | NEL [9, 34]: 0.2 mg/kg/day | LOAEL [9, 35]: 8.4 mg/kg/day | NOAEL [9, 35]: 1.9 mg/kg/day | LOAEL ([10]; systemic / pathology microscopic / liver / hypertrophy): 65 mg/kg/day | LEL ([10]; systemic / pathology microscopic / liver / hypertrophy + systemic / pathology microscopic / liver / necrosis): 65 mg/kg/day | NEL [10, 36]: 2.7 mg/kg/day | NOAEL [10, 36]: 2.7 mg/kg/day | LEL [11, 37]: 96.4 mg/kg/day | LOAEL [11, 37]: 96.4 mg/kg/day | NOAEL [11, 37]: 18.1 mg/kg/day | NEL ([11]; systemic / organ weight / liver / nos): 18.1 mg/kg/day | LEL [12]: 65 mg/kg/day | LOAEL [12]: 65 mg/kg/day | NEL [12]: 2.7 mg/kg/day | NOAEL [12]: 2.7 mg/kg/day | LEL [13, 38]: 16.8 mg/kg/day | LOAEL [13, 38]: 77.6 mg/kg/day | NEL [13, 38]: < 16.8 mg/kg/day | NOAEL ([13]; systemic / in life observation / body weight / body weight gain + systemic / clinical chemistry / alkaline phosphatase (alp/alk) / alkaline …): 16.8 mg/kg/day

NC=O [Formamide]
LEL [14, 39]: 140 mg/kg/day | LOAEL [14, 39]: > 140 mg/kg/day | NEL [14, 39]: 70 mg/kg/day | NOAEL [14, 39]: ≥ 140 mg/kg/day | LEL [14, 40]: 140 mg/kg/day | LOAEL [14, 40]: > 140 mg/kg/day | NEL [14, 40]: 70 mg/kg/day | NOAEL [14, 40]: ≥ 140 mg/kg/day | LEL ([15]; systemic / in life observation / body weight / body weight gain + systemic / hematology / platelet / platelet): 40 mg/kg/day | LOAEL ([15]; systemic / pathology microscopic / pancreas / hyperplasia + systemic / pathology microscopic / pancreas / inflammation + systemic / in life …): 80 mg/kg/day | NEL [15, 41]: 20 mg/kg/day | NOAEL [15, 41]: 40 mg/kg/day | LEL [16, 42]: 40 mg/kg/day | LOAEL [16, 42]: 80 mg/kg/day | NEL [16, 43]: 20 mg/kg/day | NOAEL [16, 43]: 40 mg/kg/day | LEL [17, 44]: 100 mg/kg/day | LOAEL [17, 44]: > 200 mg/kg/day | NEL [17, 44]: 50 mg/kg/day | NOAEL [17, 44]: ≥ 200 mg/kg/day | LEL [17, 45]: 200 mg/kg/day | LOAEL [17, 45]: > 200 mg/kg/day | NEL [17, 45]: 100 mg/kg/day | NOAEL [17, 45]: ≥ 200 mg/kg/day | LEL ([18]; systemic / in life observation / body weight / body weight + systemic / hematology / [other] / [other] + systemic / hematology / erythrocyte…): 40 mg/kg/day | LOAEL ([18]; systemic / in life observation / body weight / body weight + systemic / in life observation / body weight / body weight gain): 80 mg/kg/day | NEL [18, 46]: 20 mg/kg/day | NOAEL [18, 46]: 40 mg/kg/day | LOAEL [19, 42]: 80 mg/kg/day | NOAEL ([19]; systemic / in life observation / body weight / body weight + systemic / pathology microscopic / liver / adenoma/carcinoma combined + …): 40 mg/kg/day | LEL [19, 47]: 20 mg/kg/day | NEL [19, 47]: < 20 mg/kg/day | LOAEL [20, 48]: > 190 mg/kg/day | NEL [20, 48]: 26 mg/kg/day | NOAEL [20, 48]: ≥ 190 mg/kg/day | LEL ([20]; group: offspring, systemic / in life observation / food consumption / food consumption): 87 mg/kg/day | LOAEL [20, 49]: > 190 mg/kg/day | NOAEL [20, 49]: ≥ 190 mg/kg/day | LEL [20, 50]: 24 mg/kg/day | NEL [20, 50]: < 24 mg/kg/day | LEL [20, 51]: 190 mg/kg/day | LOAEL [20, 51]: > 190 mg/kg/day | NEL [20, 51]: 87 mg/kg/day | NOAEL [20, 51]: ≥ 190 mg/kg/day
